Laboratory results as given in article PMC8205226, “HIV-1 Integrase Inhibitors with Modifications That Affect Their Potencies against Drug Resistant Integrase Mutants” (ACS Infectious Diseases, 2021).
Read-outs that look alike come from different tables or passages of the source.

How the values were obtained:
Type in all cases: cell-based
WT HIV-1 = experiment: single-round infectivity assay, WT HIV-1 IN vector; conditions: Human immunodeficiency virus 1, read-out: EC50 values WT, vector carrying WT HIV-1 IN, single round infection, n = 4; new compounds
Method: (§1) Figure 2 Antiviral activities of the new compounds against RAL-resistant mutants. The EC50 values were determined using a vector that carries WT HIV-1 IN and the RAL-resistant mutants in a single round infection assay. […] Error bars represent the standard deviations of independent experiments, n = 4, performed in triplicate. The graph has a maximum value of 550 nM.
(§2) WT and mutant HIV-1 viral vectors were used in single-round infectivity assays to determine the antiviral potencies (EC50 values) of the compounds and the effects of the mutants on the EC50 values as previously described.[30],[54] Single round infectivity measurements were determined as done previously.[38]
(§3) The vector pNLNgoMIVR-ΔENV.LUC has been described previously.[26] To produce the new IN mutants used in this study, the IN open reading frame was removed from pNLNgoMIVR-ΔENV.LUC by digestion with KpnI and SalI, and the resulting fragment was inserted between the KpnI and SalI sites of pBluescript KS+. Using that construct as the wild-type template, we prepared the following HIV-1 IN mutants using the QuikChange II XL site directed mutagenesis kit (Agilent Technologies, Santa Clara, CA) protocol: N117A, N117H, P142A, P142H, P142S, Y143C, Y143H, S230R, R231G, and R231K. The following sense oligonucleotides were used with matching cognate antisense oligonucleotides (not shown) (Integrated DNA Technologies, Coralville, IA) in the mutagenesis: N117A, 5′-[…]-3′; N117H, 5′-[…]-3′; P142A, 5′-[…]-3′; P142H, 5′-[…]-3′; P142S, 5′-[…]-3′; Y143C, 5′- […]-3′; Y143H, 5′-[…]-3′; S230R, 5′- […]-3′; R231G, 5′-[…]-3′; R231K, 5′-[…]-3′.

HIV-1 IN mutant Y143R = experiment: single-round infectivity assay, Y143R IN mutant
Method: as §1, §2, §3

HIV-1 IN mutant N155H = experiment: single-round infectivity assay, N155H IN mutant
Method: as §1, §2, §3

[1] = tested on: HIV-1 IN double mutant G140S/Q148H; experiment: single-round infectivity assay, G140S/Q148H IN double mutant
Method: as §1, §2, §3

HIV-1 IN mutant N117A = experiment: single-round infectivity assay, N117A IN mutant
Method: (§4) The EC50 values were determined using a vector that carries the IN mutant in a single round infection assay. […] Error bars represent the standard deviations of independent experiments, n = 4, performed in triplicate.
as §2, §3

HIV-1 IN mutant N117H = experiment: single-round infectivity assay, N117H IN mutant
Method: as §4, §2, §3

HIV-1 IN mutant G118R = experiment: single-round infectivity assay, G118R IN mutant
Method: as §4, §2, §3

HIV-1 IN mutant S119R = experiment: single-round infectivity assay, S119R IN mutant
Method: as §4, §2, §3

HIV-1 IN mutant Y143C = experiment: single-round infectivity assay, Y143C IN mutant
Method: as §4, with “Figure 4 Mutations in the β5-α3 loop affect the antiviral potencies of the new compounds. The” for “The”
as §2, §3

HIV-1 IN mutant Y143H = experiment: single-round infectivity assay, Y143H IN mutant
Method: as §4, with “Figure 4 Mutations in the β5-α3 loop affect the antiviral potencies of the new compounds. The” for “The”
as §2, §3

HIV-1 IN mutant P142A = experiment: single-round infectivity assay, P142A IN mutant
Method: as §4, with “Figure 4 Mutations in the β5-α3 loop affect the antiviral potencies of the new compounds. The” for “The”
as §2, §3

HIV-1 IN mutant P142H = experiment: single-round infectivity assay, P142H IN mutant
Method: as §4
Single round infectivity measurements were determined as done previously.[38]
as §3

HIV-1 IN mutant P142S = experiment: single-round infectivity assay, P142S IN mutant
Method: as §4, with “Figure 4 Mutations in the β5-α3 loop affect the antiviral potencies of the new compounds. The” for “The”
as §2, §3

HIV-1 IN mutant S230R = experiment: single-round infectivity assay, S230R IN mutant
Method: as §4, with “Figure 5 Antiviral potencies of the new compounds against IN with mutations in the […]. The” for “The”
as §2, §3

HIV-1 IN mutant R231G = experiment: single-round infectivity assay, R231G IN mutant
Method: as §4, with “Figure 5 Antiviral potencies of the new compounds against IN with mutations in the […]. The” for “The”
as §2, §3

HIV-1 IN mutant R231K = experiment: single-round infectivity assay, R231K IN mutant
Method: as §4, with “Figure 5 Antiviral potencies of the new compounds against IN with mutations in the […]. The” for “The”
as §2, §3

[2] = fold change in EC50, IN mutant versus WT HIV-1

SMILES: O=C(NCc1ccc(F)cc1F)c1c(O)c2cc(CCS(=O)(=O)c3ccccc3)cnc2n(O)c1=O [6w, N-(2,4-Difluorobenzyl)-1,4-dihydroxy-2-oxo-6-(2-(phenylsulfonyl)ethyl)-1,2-dihydro-1,8-naphthyridine-3-carboxamide]
- EC50 (WT HIV-1): 10.6 ± 1 nM
- ratio of the EC50s (our compound relative to DTG) against Y143R (HIV-1 IN mutant Y143R; EC50 compound / EC50 DTG): 1.7
- EC50 (HIV-1 IN mutant Y143R; Human immunodeficiency virus 1, read-out: EC50 values Y143R): 7.2 ± 1.7 nM
- FC Y143R (HIV-1 IN mutant Y143R; [2]): 0.7
- ratio of the EC50s (our compound relative to DTG) against N155H (HIV-1 IN mutant N155H; EC50 compound / EC50 DTG): 3.9
- EC50 (HIV-1 IN mutant N155H; Human immunodeficiency virus 1, read-out: EC50 values N155H): 14.1 ± 4.3 nM
- FC N155H (HIV-1 IN mutant N155H; [2]): 1.3
- FC, difference in potencies 6w compared to 4f against G140S/Q148H ([1]; EC50 6w / EC50 4f): 18.8
- ratio of the EC50s (our compound relative to DTG) against G140S/Q148H ([1]; EC50 compound / EC50 DTG): 16.8
- EC50 ([1]; Human immunodeficiency virus 1, read-out: EC50 values G140S/Q148H): 97.5 ± 16.8 nM
- FC G140S/Q148H [1, 2]: 9.2
- ratio of the EC50s (our compound relative to DTG) against N117A (HIV-1 IN mutant N117A; EC50 compound / EC50 DTG): 12.8
- EC50 (HIV-1 IN mutant N117A; Human immunodeficiency virus 1, read-out: EC50 values N117A): 6.4 nM
- FC N117A (HIV-1 IN mutant N117A; [2]): 0.6
- ratio of the EC50s (our compound relative to DTG) against N117H (HIV-1 IN mutant N117H; EC50 compound / EC50 DTG): 7.9
- EC50 (HIV-1 IN mutant N117H; Human immunodeficiency virus 1, read-out: EC50 values N117H): 19 ± 1.4 nM
- FC N117H (HIV-1 IN mutant N117H; [2]): 1.8
- ratio of the EC50s (our compound relative to DTG) against G118R (HIV-1 IN mutant G118R; EC50 compound / EC50 DTG): 16.8
- EC50 (HIV-1 IN mutant G118R; Human immunodeficiency virus 1, read-out: EC50 values G118R): 219 ± 29.8 nM
- FC G118R (HIV-1 IN mutant G118R; [2]): 20.7
- ratio of the EC50s (our compound relative to DTG) against S119R (HIV-1 IN mutant S119R; EC50 compound / EC50 DTG): 16.6
- EC50 (HIV-1 IN mutant S119R; Human immunodeficiency virus 1, read-out: EC50 values S119R): 38.2 ± 6 nM
- FC S119R (HIV-1 IN mutant S119R; [2]): 3.6
- ratio of the EC50s (our compound relative to DTG) against Y143C (HIV-1 IN mutant Y143C; EC50 compound / EC50 DTG): 13.4
- EC50 (HIV-1 IN mutant Y143C; Human immunodeficiency virus 1, read-out: EC50 values Y143C, single round infection, n = 4): 18.8 ± 1.4 nM
- EC50 (HIV-1 IN mutant Y143C; read-out: EC50 values Y143C, single round infection, n = 4): > 18 nM
- ratio of the EC50s (our compound relative to DTG) against Y143H (HIV-1 IN mutant Y143H; EC50 compound / EC50 DTG): 11.4
- EC50 (HIV-1 IN mutant Y143H; Human immunodeficiency virus 1, read-out: EC50 values Y143H, single round infection, n = 4): 25.1 ± 3.6 nM
- EC50 (HIV-1 IN mutant Y143H; read-out: EC50 values Y143H, single round infection, n = 4): > 18 nM
- ratio of the EC50s (our compound relative to DTG) against P142A (HIV-1 IN mutant P142A; EC50 compound / EC50 DTG): 9.1
- EC50 (HIV-1 IN mutant P142A; Human immunodeficiency virus 1, read-out: EC50 values P142A): 22.8 ± 2.5 nM
- ratio of the EC50s (our compound relative to DTG) against P142H (HIV-1 IN mutant P142H; EC50 compound / EC50 DTG): 9.2
- EC50 (HIV-1 IN mutant P142H; Human immunodeficiency virus 1, read-out: EC50 values P142H): 25.7 ± 2 nM
- ratio of the EC50s (our compound relative to DTG) against P142S (HIV-1 IN mutant P142S; EC50 compound / EC50 DTG): 14.2
- EC50 (HIV-1 IN mutant P142S; Human immunodeficiency virus 1, read-out: EC50 values P142S): 31.2 ± 3.7 nM
- ratio of the EC50s (our compound relative to DTG) against S230R (HIV-1 IN mutant S230R; EC50 compound / EC50 DTG): 2.4
- EC50 (HIV-1 IN mutant S230R; Human immunodeficiency virus 1, read-out: EC50 values S230R): 11.2 ± 1.6 nM
- FC S230R (HIV-1 IN mutant S230R; [2]): 1.1
- ratio of the EC50s (our compound relative to DTG) against R231G (HIV-1 IN mutant R231G; EC50 compound / EC50 DTG): 10.9
- EC50 (HIV-1 IN mutant R231G; Human immunodeficiency virus 1, read-out: EC50 values R231G): 15.2 ± 1.4 nM
- FC R231G (HIV-1 IN mutant R231G; [2]): 1.4
- ratio of the EC50s (our compound relative to DTG) against R231K (HIV-1 IN mutant R231K; EC50 compound / EC50 DTG): 6.7
- EC50 (HIV-1 IN mutant R231K; Human immunodeficiency virus 1, read-out: EC50 values R231K, single round infection, n = 4): 28.2 ± 3.9 nM
- FC R231K (HIV-1 IN mutant R231K; [2]): 2.7
